In paper PMC13128454, “Mutant p53 protein accumulation is selectively targetable by proximity-inducing drugs” (Nature Chemical Biology, 2025):
Values joined by “and” are separate entries in the source; they are usually repeats but may differ in a detail not shown here. Equal entries are not always repeated. Where two headings read alike, the source gives them in different places.

How the values were obtained:
Format in all cases: cell-based
[1] = system: Calu-1 cells stably expressing Halo–p53-R273H (FL)–mCherry versus parental Calu-1 cells; test: flow-cytometry growth competition; settings: sheet S2E
Protocol: (§1) Cells with and without a fluorescent marker (for example, Halo–p53–mCherry) were mixed and the resulting solution was plated in six-well plates or 10-cm dishes at low density; compound was added at varying concentrations. After reaching confluence, cells were passaged and retreated with compound if needed. Otherwise, cells were trypsinized, washed and resuspended in complete growth medium in 96-well plates or tubes for flow cytometry. Untreated cell mixtures were used to establish gates separating the fluorophore^+/− populations. Analysis was conducted on a CytoFLEX LX flow cytometer.

[2] = system: Halo–p53-Y220C ΔTAD–mCherry 293T cells versus parental 293T cells; test: flow-cytometry growth competition; settings: for normalized_mCherry_percentage: Y220C, day 8, normalized to DMSO
Protocol: as §1

[3] = system: MFE319 cells stably expressing sgTP53–Cas9–EGFP versus parental MFE319 cells; test: flow-cytometry growth competition
Protocol: as §1

[4] = system: p53 luciferase transcriptional reporter in Huh7 cells; test: p53 luciferase reporter assay; settings: for p53 luciferase reporter signal (normalized), replicates: Huh7
Protocol: (§2) Huh7 and MFE319 cell lines stably expressing a p53 reporter (Addgene, 90363)[59] were generated. Cells were plated in 384-well plates (1,500 cells per well) and treated with varying concentrations of compound. Then, 16 h after treatment, firefly luciferase substrate was added to the cells and luminescence was monitored using an EnVision 2105 multimode plate reader.

[5] = system: p53 luciferase transcriptional reporter in MFE319 cells; test: p53 luciferase reporter assay; settings: for p53 luciferase reporter signal (normalized), replicates: MFE319
Protocol: as §2

[6] = CellTiter-Glo cell viability; settings: human, p53_construct WT, CTG 4 days, read-out: mean (normalized viability)
Protocol: (§3) Cells were plated in 384-well plates (typically 1,500 cells per well) with varying concentrations of compounds, with a total volume of 50 μl per well. CTG reagent was added (25 μl) to the solutions, mixed and read out using an EnVision 2105 multimode plate reader.

[7] = viability with doxycycline-inducible construct; settings: human, read-out: mean_norm (normalized viability)
Protocol: as §3

[8] = system: 293T cells expressing a dox inducible Halo–p53-Y220C ΔTAD–mCherry; test: viability with doxycycline-inducible construct
Protocol: as §3

CC[C@@H]1C(=O)N(C)c2cnc(Nc3ccc(C(=O)NC4CCN(C)CC4)cc3OC)nc2N1C1CCCC1 [BI2536]
mCherry_percent ([1]; 0.1 nM): 80.66% | mCherry_percent ([1]; 1 nM): 80.59% | mCherry_percent ([1]; 10 nM): 80.93% | activity / difference in cell survival in competition ([2]; 8-day competition): did not observe any activity | normalized_mCherry_percentage ([2]; 0.02 nM): 98.51% | normalized_mCherry_percentage ([2]; 0.2 nM): 98.69% | normalized_mCherry_percentage ([2]; 1 nM): 100.1% | normalized_mCherry_percentage ([2]; 5 nM): 117.7% | merge_avg (growth competition, sheet 4H) ([3]; Concentration (pM) 19.5312): 0.9382 | merge_avg (growth competition, sheet 4H) ([3]; Concentration (pM) 78.125): 0.9005 | merge_avg (growth competition, sheet 4H) ([3]; Concentration (pM) 312.5): 0.9194 | merge_avg (growth competition, sheet 4H) ([3]; Concentration (pM) 1250): 0.8118 | enrichment of EGFP^+ (TP53-knockout) population ([3]; day 9, p53-01 at doses between 800 nM and 1.25 μM): no such activity | induction of p53 reporter ([4]; 16 h, PMV6 at doses of 1.25–10 μM): no such effect | p53 luciferase reporter signal (normalized), replicates ([4]; log Concentration (pM) 1.68867): 1.071 and 1.082 and 0.9754 | p53 luciferase reporter signal (normalized), replicates ([4]; log Concentration (pM) 1.9897): 0.9944 and 0.9877 and 0.9088 | p53 luciferase reporter signal (normalized), replicates ([4]; log Concentration (pM) 2.29073): 0.9631 and 0.9698 and 0.9782 | p53 luciferase reporter signal (normalized), replicates ([4]; log Concentration (pM) 2.59176): 1.0179 and 0.8887 and 0.8977 | p53 luciferase reporter signal (normalized), replicates ([4]; log Concentration (pM) 2.89279): 1.088 and 0.9771 and 0.9776 | p53 luciferase reporter signal (normalized), replicates ([4]; log Concentration (pM) 3.19382): 1.04 and 1.0179 and 1.023 | p53 luciferase reporter signal (normalized), replicates ([4]; log Concentration (pM) 3.49485): 0.8529 and 0.9603 and 1.044 | p53 luciferase reporter signal (normalized), replicates ([4]; log Concentration (pM) 3.79588): 0.8775 and 0.9273 and 0.8786 | p53 luciferase reporter signal (normalized), replicates ([4]; log Concentration (pM) 4.09691): 0.9161 and 0.9032 and 0.92 | p53 luciferase reporter signal (normalized), replicates ([4]; log Concentration (pM) 4.39794): 0.8747 and 0.91 and 0.9648 | p53 luciferase reporter signal (normalized), replicates ([4]; log Concentration (pM) 4.69897): 0.9245 and 0.9167 and 0.9228 | p53 luciferase reporter signal (normalized), replicates ([4]; log Concentration (pM) 5): 0.7964 and 0.863 and 0.8635 | induction of p53 reporter ([5]; 16 h): no induction of luciferase activity | p53 luciferase reporter signal (normalized), replicates ([5]; log Concentration (pM) 1.68867): 0.8432 and 0.8795 and 0.997 | p53 luciferase reporter signal (normalized), replicates ([5]; log Concentration (pM) 1.9897): 1.008 and 0.9306 and 1.09 | p53 luciferase reporter signal (normalized), replicates ([5]; log Concentration (pM) 2.29073): 0.7831 and 0.9939 and 0.826 | p53 luciferase reporter signal (normalized), replicates ([5]; log Concentration (pM) 2.59176): 1.029 and 1.032 and 0.9459 | p53 luciferase reporter signal (normalized), replicates ([5]; log Concentration (pM) 2.89279): 0.8553 and 0.942 and 1.018 | p53 luciferase reporter signal (normalized), replicates ([5]; log Concentration (pM) 3.19382): 0.956 and 0.9365 and 0.9572 | p53 luciferase reporter signal (normalized), replicates ([5]; log Concentration (pM) 3.49485): 0.8748 and 0.9709 and 0.8007 | p53 luciferase reporter signal (normalized), replicates ([5]; log Concentration (pM) 3.79588): 0.8943 and 0.9669 and 0.8623 | p53 luciferase reporter signal (normalized), replicates ([5]; log Concentration (pM) 4.09691): 0.6004 and 0.8065 and 0.6757 | p53 luciferase reporter signal (normalized), replicates ([5]; log Concentration (pM) 4.39794): 0.6617 and 0.6465 and 0.5696 | p53 luciferase reporter signal (normalized), replicates ([5]; log Concentration (pM) 4.69897): 0.5274 and 0.6902 and 0.6941 | p53 luciferase reporter signal (normalized), replicates ([5]; log Concentration (pM) 5): 0.7269 and 0.634 and 0.6632 | viability at 4 days ([6]; Compound_conc 0.0488281): 97% | viability at 4 days ([6]; Compound_conc 0.0976562): 111% | viability at 4 days ([6]; Compound_conc 0.195312): 98.9% | viability at 4 days ([6]; Compound_conc 0.390625): 103% | viability at 4 days ([6]; Compound_conc 0.78125): 103% | viability at 4 days ([6]; Compound_conc 1.5625): 105% | viability at 4 days ([6]; Compound_conc 3.125): 101% | viability at 4 days ([6]; Compound_conc 6.25): 80.9% | viability at 4 days ([6]; Compound_conc 12.5): 64.4% | viability at 4 days ([6]; Compound_conc 25): 62.4% | viability at 4 days ([6]; Compound_conc 50): 49.4% | viability at 4 days ([6]; Compound_conc 100): 42% | viability ([7]; dox 100, Concentration 0.0390625): 99% | viability ([7]; dox 100, Concentration 0.078125): 86.5% | viability ([7]; dox 100, Concentration 0.15625): 88.6% | viability ([7]; dox 1000, Concentration 0.0390625): 97.3% | viability ([7]; dox 1000, Concentration 0.078125): 89.3% | viability ([7]; dox 1000, Concentration 0.15625): 88.7% | viability ([7]; dox 1000, Concentration 0.3125): 83% | viability ([7]; dox 1000, Concentration 0.625): 74.2% | viability ([7]; dox 1000, Concentration 1.25): 48.7% | viability ([7]; dox 1000, Concentration 2.5): 18.6% | viability ([7]; dox 1000, Concentration 5): 14.5% | viability ([7]; dox 1000, Concentration 10): 10.7% | change of potency upon doxycycline induction ([8]; dox 0, 100, 1000 ng/mL, 4 days): without impacting the potency | mean_norm (normalized viability) ([8]; dox 0, Concentration 0.0390625): 0.9266 | mean_norm (normalized viability) ([8]; dox 0, Concentration 0.078125): 0.8991 | mean_norm (normalized viability) ([8]; dox 0, Concentration 0.15625): 0.8734 | mean_norm (normalized viability) ([8]; dox 0, Concentration 0.3125): 0.835 | mean_norm (normalized viability) ([8]; dox 0, Concentration 0.625): 0.7837 | mean_norm (normalized viability) ([8]; dox 0, Concentration 1.25): 0.5152 | mean_norm (normalized viability) ([8]; dox 0, Concentration 2.5): 0.218 | mean_norm (normalized viability) ([8]; dox 0, Concentration 5): 0.1689 | mean_norm (normalized viability) ([8]; dox 0, Concentration 10): 0.1644 | mean_norm (normalized viability) ([8]; dox 100, Concentration 0.3125): 0.8537 | mean_norm (normalized viability) ([8]; dox 100, Concentration 0.625): 0.6735 | mean_norm (normalized viability) ([8]; dox 100, Concentration 1.25): 0.3823 | mean_norm (normalized viability) ([8]; dox 100, Concentration 2.5): 0.2022 | mean_norm (normalized viability) ([8]; dox 100, Concentration 5): 0.161 | mean_norm (normalized viability) ([8]; dox 100, Concentration 10): 0.1435
